Measured values: patent publication US12582722B2, “Bifunctional compounds for degrading BTK via ubiquitin proteosome pathway” (NURIX THERAPEUTICS, INC., priority 2019, dated 2026)

Molecular target: T1, BTK (Homo sapiens, UniProt Q06187)
T1 construct: endogenous in cells; host or cells: Ramos (ATCC CRL-1596)
Assay: Cellular BTK HTRF Assay (BTK degradation in Ramos cells)
Format: cell-based
Settings: four hours incubation, 37° C., BTK levels relative to DMSO-treated cells
Description: Ramos (CRL-1596) cells were obtained from American Type Culture Collection and were grown in RPMI-1640 media (ATCC, 30-2001) supplemented with 10% heat-inactivated FBS (Corning Premium Fetal Bovine Serum from Fisher, MT35015CV).
Compounds of the present invention were added to 50,000 Ramos cells in round-bottom 96 well plates with a final DMSO concentration of […] and were incubated at 37° C., 5% CO2 for four hours. BTK levels were determined using Cisbio Total-BTK HTRF ([…] Time-Resolved Fluorescence) kit (63ADK064PEG) according to manufacturer's protocol. Briefly, cells were incubated in 1× supplied lysis buffer for 30 minutes. In an opaque white low volume 96 well plate (Cisbio, 66PL96005), cell lysate was combined with two different specific BTK antibodies, one conjugated with Eu^3+-Cryptate FRET donor and one conjugated with d2 FRET acceptor. Assay controls include wells containing cell lysate with only the Eu^3+-Cryptate FRET donor antibody and wells containing both HTRF antibodies and lysis buffer without cells or control lysate provided by Cisbio. HTRF ratio was calculated as (acceptor signal at 665 nm/donor signal at 620 nm)×10^4. Background HTRF levels were determined from the control well containing the donor, but no acceptor, antibody. Background HTRF levels were subtracted from all samples. Readouts were reported as HTRF levels relative to HTRF levels of DMSO-treated cells. Four-parameter non-linear regressions were performed in GraphPad Prism 7.02 to obtain DC50 values. DC50 values are provided in Table 3, wherein A<7.5 nM, 7.5 nM≤B≤50 nM, and 50 nM<C<500 nM.

T1 sequence (Q06187 whole entry): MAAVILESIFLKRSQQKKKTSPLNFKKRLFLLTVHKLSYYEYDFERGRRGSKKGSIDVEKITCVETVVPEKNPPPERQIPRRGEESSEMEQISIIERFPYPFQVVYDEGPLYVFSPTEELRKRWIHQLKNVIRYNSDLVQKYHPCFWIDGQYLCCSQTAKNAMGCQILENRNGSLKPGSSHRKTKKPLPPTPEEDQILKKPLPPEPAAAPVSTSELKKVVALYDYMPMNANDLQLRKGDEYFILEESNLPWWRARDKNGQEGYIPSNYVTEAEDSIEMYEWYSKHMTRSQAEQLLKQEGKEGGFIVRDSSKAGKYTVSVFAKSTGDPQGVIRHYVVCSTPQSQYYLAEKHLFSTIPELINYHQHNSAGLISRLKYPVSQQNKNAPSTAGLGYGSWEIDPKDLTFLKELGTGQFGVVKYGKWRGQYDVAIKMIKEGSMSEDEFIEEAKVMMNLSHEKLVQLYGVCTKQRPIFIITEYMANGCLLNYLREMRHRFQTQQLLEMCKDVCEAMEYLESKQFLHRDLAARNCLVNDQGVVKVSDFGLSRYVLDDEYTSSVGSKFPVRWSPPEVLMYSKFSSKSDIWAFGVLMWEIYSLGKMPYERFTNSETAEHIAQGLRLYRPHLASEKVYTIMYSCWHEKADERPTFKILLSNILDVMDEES

Cn1cc(Nc2nc(N3CCC[C@@H](N4CC5(CN(C6CCN(c7ccc8c(c7)C(=O)N(C7CCC(=O)NC7=O)C8=O)CC6)C5)OC4=O)C3)cnc2C(N)=O)cn1 (stereo partly drawn) [Compound 44, 5-[(3R)-3-(2-{1-[2-(2,6-dioxopiperidin-3-yl)-1,3-dioxoisoindol-5-yl]piperidin-4-yl}-6-oxo-5-oxa-2,7-diazaspiro[3.4]octan-7-yl)piperidin-1-yl]-3-[(1-methylpyrazol-4-yl)amino]pyrazine-2-carboxamide] and Cn1cc(Nc2nc(N3CCC[C@@H](N4CC5(CN(CC6CN(c7ccc8c(c7)C(=O)N(C7CCC(=O)NC7=O)C8=O)C6)C5)OC4=O)C3)cnc2C(N)=O)cn1 (stereo partly drawn) [Compound 42, 5-((3R)-3-(2-((1-(2-(2,6-dioxopiperidin-3-yl)-1,3-dioxoisoindolin-5-yl)azetidin-3-yl)methyl)-6-oxo-5-oxa-2,7-diazaspiro[3.4]octan-7-yl)piperidin-1-yl)-3-((1-methyl-1H-pyrazol-4-yl)amino)pyrazine-2-carboxamide] cannot be ordered by DC50: < 7.5 nM for the first, < 7.5 nM for the second.

CS(=O)(=O)c1ccc(Nc2nc(N3CCC[C@@H](NC(=O)OCC4CCN(c5ccc6c(c5)C(=O)N(C5CCC(=O)NC5=O)C6=O)CC4)C3)cnc2C(N)=O)cc1 (stereo partly drawn) [Compound 8, (1-(2-(2,6-dioxopiperidin-3-yl)-1,3-dioxoisoindolin-5-yl)piperidin-4-yl)methyl ((R)-1-(5-carbamoyl-6-((4-(methylsulfonyl)phenyl)amino)pyrazin-2-yl)piperidin-3-yl)carbamate] and CS(=O)(=O)c1ccc(Nc2nc(N3CCC[C@@H](NC(=O)OCCC4CCN(c5ccc6c(c5)C(=O)N(C5CCC(=O)NC5=O)C6=O)CC4)C3)cnc2C(N)=O)cc1 (stereo partly drawn) [Compound 6, 2-(1-(2-(2,6-dioxopiperidin-3-yl)-1,3-dioxoisoindolin-5-yl)piperidin-4-yl)ethyl ((R)-1-(5-carbamoyl-6-((4-(methylsulfonyl)phenyl)amino)pyrazin-2-yl)piperidin-3-yl)carbamate] fall in the same range of DC50: 7.5 to 50 nM for the first, 7.5 to 50 nM for the second.

First: CS(=O)(=O)c1ccc(Nc2nc(N3CCC[C@@H](NC(=O)N4CCN(Cc5ccc6c(c5)C(=O)N(C5CCC(=O)NC5=O)C6=O)CC4)C3)cnc2C(N)=O)cc1 (stereo partly drawn) [Compound 26, 5-((3R)-3-(4-((2-(2,6-dioxopiperidin-3-yl)-1,3-dioxoisoindolin-5-yl)methyl)piperazine-1-carboxamido)piperidin-1-yl)-3-((4-(methylsulfonyl)phenyl)amino)pyrazine-2-carboxamide]
Second: CS(=O)(=O)c1ccc(Nc2nc(N3CCC[C@@H](NC(=O)N4CC5(C4)CN(c4ccc6c(c4)C(=O)N(C4CCC(=O)NC4=O)C6=O)C5)C3)cnc2C(N)=O)cc1 (stereo partly drawn) [Compound 24, N-[(3R)-1-{5-carbamoyl-6-[(4-methanesulfonylphenyl)amino]pyrazine-2-yl}piperidin-3-yl]-6-[2-(2,6-dioxopiperidin-3-yl)-1,3-dioxoisoindol-5-yl]-2,6-diazaspiro[3.3]heptane-2-carboxamide]
The DC50 of the first is higher: 50 to 500 nM for the first, 7.5 to 50 nM for the second.

First: CS(=O)(=O)c1ccc(Nc2nc(N3CCC[C@@H](NC(=O)N4CCC5(CC4)CN(c4ccc6c(c4)C(=O)N(C4CCC(=O)NC4=O)C6=O)C5)C3)cnc2C(N)=O)cc1 (stereo partly drawn) [Compound 28, N—((R)-1-(5-carbamoyl-6-((4-(methylsulfonyl)phenyl)amino)pyrazine-2-yl)piperidin-3-yl)-2-(2-(2,6-dioxopiperidin-3-yl)-1,3-dioxoisoindolin-5-yl)-2,7-diazaspiro[3.5]nonane-7-carboxamide]
Second: CS(=O)(=O)c1ccc(Nc2nc(N3CCC[C@@H](NC(=O)N4CCC5(CC4)CCN(c4ccc6c(c4)C(=O)N(C4CCC(=O)NC4=O)C6=O)CC5)C3)cnc2C(N)=O)cc1 (stereo partly drawn) [Compound 11, N-[(3R)-1-{5-carbamoyl-6-[(4-methanesulfonylphenyl)amino]pyrazin-2-yl}piperidin-3-yl]-9-[2-(2,6-dioxopiperidin-3-yl)-1,3-dioxoisoindol-5-yl]-3,9-diazaspiro[5.5]undecane-3-carboxamide]
The DC50 of the first is higher: 7.5 to 50 nM for the first, < 7.5 nM for the second.

CS(=O)(=O)c1ccc(Nc2nc(N3CCC[C@@H](NC(=O)C4CCC5(CC4)CCN(Cc4ccc6c(c4)C(=O)N(C4CCC(=O)NC4=O)C6=O)CC5)C3)cnc2C(N)=O)cc1 (stereo partly drawn) [Compound 31, N—((R)-1-(5-carbamoyl-6-((4-(methylsulfonyl)phenyl)amino)pyrazin-2-yl)piperidin-3-yl)-3-((2-(2,6-dioxopiperidin-3-yl)-1,3-dioxoisoindolin-5-yl)methyl)-3-azaspiro[5.5]undecane-9-carboxamide] and CS(=O)(=O)c1ccc(Nc2nc(N3CCC[C@@H](NC(=O)C4CCN(CC5CCN(c6ccc7c(c6)C(=O)N(C6CCC(=O)NC6=O)C7=O)CC5)C4)C3)cnc2C(N)=O)cc1 (stereo partly drawn) [Compound 14, 5-[(3R)-3-[1-({1-[2-(2,6-dioxopiperidin-3-yl)-1,3-dioxoisoindol-5-yl]piperidin-4-yl}methyl)pyrrolidine-3-amido]piperidin-1-yl]-3-[(4-methanesulfonylphenyl)amino]pyrazine-2-carboxamide] cannot be ordered by DC50: < 7.5 nM for the first, < 7.5 nM for the second.

Cc1cc(Nc2nc(N3CCC[C@@H](NC(=O)C4CCN(CC5CCN(c6ccc7c(c6)C(=O)N(C6CCC(=O)NC6=O)C7=O)CC5)CC4)C3)cnc2C(N)=O)sn1 (stereo partly drawn) [Compound 22, 5-[(3R)-3-[1-({1-[2-(2,6-dioxopiperidin-3-yl)-1,3-dioxoisoindol-5-yl]piperidin-4-yl}methyl)piperidine-4-amido]piperidin-1-yl]-3-[(3-methyl-1,2-thiazol-5-yl)amino]pyrazine-2-carboxamide] and Cc1cc(Nc2nc(N3CCC[C@@H](NC(=O)C4CCN(C5CCN(c6ccc7c(c6)C(=O)N(C6CCC(=O)NC6=O)C7=O)CC5)CC4)C3)cnc2C(N)=O)sn1 (stereo partly drawn) [Compound 39, N—((R)-1-(5-carbamoyl-6-((3-methylisothiazol-5-yl)amino)pyrazin-2-yl)piperidin-3-yl)-1′-(2-(2,6-dioxopiperidin-3-yl)-1,3-dioxoisoindolin-5-yl)-[1,4′-bipiperidine]-4-carboxamide] cannot be ordered by DC50: < 7.5 nM for the first, < 7.5 nM for the second.

Compared with Cc1cc(Nc2nc(N3CCC[C@@H](NC(=O)N4CCN(CC5CN(c6ccc7c(c6)C(=O)N(C6CCC(=O)NC6=O)C7=O)C5)CC4)C3)cnc2C(N)=O)sn1 (stereo partly drawn) [Compound 18, 5-[(3R)-3-[4-({1-[2-(2,6-dioxopiperidin-3-yl)-1,3-dioxoisoindol-5-yl]azetidin-3-yl}methyl)piperazine-1-carbonylamino]piperidin-1-yl]-3-[(3-methyl-1,2-thiazol-5-yl)amino]pyrazine-2-carboxamide], CS(=O)(=O)c1ccc(Nc2nc(N3CCC[C@@H](NC(=O)OC[C@@H]4CCN(c5ccc6c(c5)C(=O)N(C5CCC(=O)NC5=O)C6=O)C4)C3)cnc2C(N)=O)cc1 (stereo partly drawn) [Compound 9, ((3R)-1-(2-(2,6-dioxopiperidin-3-yl)-1,3-dioxoisoindolin-5-yl)pyrrolidin-3-yl)methyl ((R)-1-(5-carbamoyl-6-((4-(methylsulfonyl)phenyl)amino)pyrazin-2-yl)piperidin-3-yl)carbamate] is higher in DC50: < 7.5 nM for the first, 50 to 500 nM for the second.

Compared with CS(=O)(=O)c1ccc(Nc2nc(N3CCC[C@@H](NC(=O)OCCCCCCCOc4ccc5c(c4)C(=O)N(C4CCC(=O)NC4=O)C5=O)C3)cnc2C(N)=O)cc1 (stereo partly drawn) [Compound 3, 7-((2-(2,6-dioxopiperidin-3-yl)-1,3-dioxoisoindolin-5-yl)oxy)heptyl ((R)-1-(5-carbamoyl-6-((4-(methylsulfonyl)phenyl)amino)pyrazin-2-yl)piperidin-3-yl)carbamate], CS(=O)(=O)c1ccc(Nc2nc(N3CCC[C@@H](NC(=O)CCCCCCc4cccc5c4CN(C4CCC(=O)NC4=O)C5=O)C3)cnc2C(N)=O)cc1 (stereo partly drawn) [Compound 5, 5-[(3R)-3-{7-[2-(2,6-dioxopiperidin-3-yl)-1-oxo-3H-isoindol-4-yl]heptanamido}piperidin-1-yl]-3-[(4-methanesulfonylphenyl)amino]pyrazine-2-carboxamide] is higher in DC50: 7.5 to 50 nM for the first, 50 to 500 nM for the second.

Compared with Cn1cc(Nc2nc(N3CCC[C@@H](N4CCC5(CCN(C6CCN(c7ccc8c(c7)C(=O)N(C7CCC(=O)NC7=O)C8=O)CC6)CC5)C4=O)C3)cnc2C(N)=O)cn1 (stereo partly drawn) [Compound 49, 5-[(3R)-3-(8-{1-[2-(2,6-dioxopiperidin-3-yl)-1,3-dioxoisoindol-5-yl]piperidin-4-yl}-1-oxo-2,8-diazaspiro[4.5]decan-2-yl)piperidin-1-yl]-3-[(1-methylpyrazol-4-yl)amino]pyrazine-2-carboxamide], CS(=O)(=O)c1ccc(Nc2nc(N3CCC[C@@H](NC(=O)C4CCN(C5CCN(c6ccc7c(c6)C(=O)N(C6CCC(=O)NC6=O)C7=O)CC5)CC4)C3)cnc2C(N)=O)cc1 (stereo partly drawn) [Compound 40, N—((R)-1-(5-carbamoyl-6-((4-(methylsulfonyl)phenyl)amino)pyrazin-2-yl)piperidin-3-yl)-1′-(2-(2,6-dioxopiperidin-3-yl)-1,3-dioxoisoindolin-5-yl)-[1,4′-bipiperidine]-4-carboxamide] is higher in DC50: < 7.5 nM for the first, 50 to 500 nM for the second.
